Measured values as given in patent US5814634A, “Alkylenediamine derivative anti-ulcer drug and antibacterial drug” (Shiseido Co. Ltd., priority 1996, dated 1998).
Like-named read-outs stand apart in the source and are kept apart here.

Experiments:
stress ulcer = test: WIS: Restraint and Water Immersion Stress-Induced Ulcer Inhibition Test; type: in vivo, rat (male Crj:SD or Slc:SD); conditions: 100 mg/kg oral, rats, water immersion stress 7 hours
Protocol: WIS: Restraint and Water Immersion Stress-Induced Ulcer Inhibition Test
The degree of inhibition of the stress ulcer formation is tested.
Male Crj:SD or Slc:SD rats (6 to 7-week-old) were fasted overnight, but allowed free access to water. Each group has 5 to 8 of these rats. The sample compound was dissolved or suspended in an aqueous solution of 0.3% sodium carboxymethylcellulose or 0.05% Tween 80 and then was orally administered (100 mg/10 ml/kg). To a control group, the vehicle was administered. 10 minutes later, the rats were placed in a stress cage and immersed to the level of xipfoid process in a water bath (21° C.) for 7 hours. At the end of the stress, the rats were sacrificed by inhalation of ether or carbon dioxide. Then, the stomach of each was removed, inflated by injecting 10 ml of 5% formalin neutral buffer solution, and immersed in 1% formalin neutral buffer solution for 30 minutes or more to be fixed. The stomach was incised along the greater curvature and then the length of each erosion in the glandular portion was determined under dissecting microscope. The sum of the length of erosions per stomach was defined as ulcer index (UI).
(§1) The effect obtained when 100 mg/kg of the sample compound had been administered was expressed as ulcer formation inhibitory rate (%) as follows: [formula] VOL, TAO: Acid Secretion Inhibition Test In Vivo i) Meaning

[1] = tested on: gastric corpus mucosa cells; conditions: rabbit, gastric mucosal cells, 4 h, 100 µM
acid secretion in vivo = test: VOL, TAO: Acid Secretion Inhibition Test In Vivo; set-up: species or system rat (male Crj:Donryu); conditions: 100 mg/kg oral, pylorus-ligated rats, histamine 30 mg/kg s.c.
Protocol: as §1
Inhibitory effect on acid secretion in vivo is confirmed.
Male Crj:Donryu rats (7-week-old) were fasted overnight but allowed free access to water. In each group, 8 to 10 of these rats were used under urethane anesthesia (1.25 g/kg). The sample compound dissolved or suspended in an aqueous solution of 0.5% sodium carboxymethylcellulose or 0.05% Tween 80 was orally administered (100 mg/10 ml/kg). 30 minutes later, the abdomen of each was incised and the pylorus was ligated. 30 minutes after the ligation, 30 mg/kg of histamine dissolved in physiological saline was subcutaneously administered and, 3 hours thereafter, the rat was sacrificed with carbon dioxide. Immediately thereafter, each stomach was removed and the gastric contents were collected and each volume was determined. The total acid output was determined by titration of the gastric juice with 0.1N NaOH.
(§2) With respect to the gastric juice volume (VOL) and the total acid output (TAO), the effects obtained when 100 mg/kg of the sample compound had been administered were expressed as their respective inhibitory rates (%) as follows: [formula] CAP: Acid Secretion Inhibition Test In Vitro i) Meaning

[2] = tested on: isolated gastric fundic gland; test: CAP: Acid Secretion Inhibition Test In Vitro ([14C]-aminopyrine uptake); type: cell-based, rabbit (male Japanese White); conditions: Oryctolagus cuniculus, 40 min, read-out: CAP: acid secretion inhibitory rate
Protocol: as §2
The acid secretion inhibitory activity in a cell level is studied. It can also be used for studying the mechanism of the effect.
ii-a) Preparation of isolated gastric fundus gland suspension
First, an isolated gastric fundic gland sample was prepared. […] Immediately thereafter, the stomach was removed and, after its pyloric and cardiac antrum were severed, incised along its greater curvature into two sheets. The gastric contents adhering to the mucosal surface was washed out with ice-cooled PBS (-) and then carefully washed therein. The gastric wall was spread on a cork board with its mucosal surface facing up and the feed and mucus thereon were completely removed with sterile gauze. The mucosa was separated therefrom by a spatula and then collected in ice-cooled PBS (-). After being washed twice with PBS (-), the mucosa was minced into 2-3 mm^3 pieces by scissors. These pieces were further washed twice with a nutrient solution. The nutrient solution comprises 132.4 mM of NaCl, 5.4 mM of KCl, 5 mM of Na2 HPO4.12H2 O, 1 mM of NaH2 PO4.2H2 O, 1.2 mM of MgSO4, 1 mM of CaCl2, 25 mM of HEPES, 2 mg/ml of glucose, and 1 mg/ml of BSA. Into 70 ml of the nutrient solution containing 1 mg/ml of collagenase, minced mucosal pieces were dispersed and intensely stirred in a conical flask with a stirrer at 37° C. for 40 to 60 minutes. During this period, 100% O2 was sprayed on the nutrient solution surface and the pH was appropriately measured such that it was immediately adjusted to pH 7.4, when the value was therebelow, with a base. The nutrient solution was added to the reaction solution so as to attain the total amount of about 200 ml. After being filtered through a mesh, the suspension was divisionally introduced into 50 ml centrifuge tubes and left for 15 minutes such that gastric fundic gland was deposited. The supernatant was repeatedly removed by an aspirator, dispersed in the nutrient solution, and then left such that the gastric fundic gland was washed three times. At this time, without using a pipette, the suspension was alternately introduced into two centrifuge tubes so as to effect dispersion. The number of cells was counted under microscope and adjusted to 1.6×10^6 cells/ml.
ii-b) [^14 C]-aminopyrine uptake test
Then, [^14 C]-aminopyrine uptake test was performed. After an Eppendorf tube was weighed, 10 μl (final concentration: 10^-5 M) of histamine dissolved in the above-mentioned nutrient solution, 10 μl (final concentration: 10^-5 M) of the test compound dissolved in DMSO, and 10 μl (final concentration: 0.05 μCi/ml) of [^14 C]-aminopyrine diluted with the nutrient solution were introduced therein and then 970 μl of the isolated gastric fundic gland suspension prepared above was added thereto. Subsequently, this mixture was shaken at 37° C. for 40 minutes at 125 cycles/minute. After being centrifuged for 30 minutes, 200 μl of its supernatant was collected into a mini-vial, while the rest was removed by an aspirator. The gland pellet was completely dried as the tube with its lid being opened was kept for one night in a drying oven at 80° C. and then the lid was closed and the weight was determined at room temperature. Then 100 μl of 1N KOH was added thereto and the tube with its lid being closed was treated at 60° C. for 1 to 2 hours so as to dissolve the pellet. Then, the contents thereof were transferred to a mini-vial. Into the mini-vial containing the supernatant or gland pellet, 4 ml of Atomlite™ was added and then the radioactivity was measured by a liquid scintillation counter. […]

in vitro = conditions: rabbit, gastric mucosal cells
[3] = MTT: Cell Damaging and Protecting Effect Test; conditions: rabbit, gastric mucosal cells
Helicobacter pyroli = test: AHP: Antibacterial Activity Test Against Helicobacter pyroli (agar dilution MIC); type: cell-based, Helicobacter pyroli NCTC 11637; conditions: for MIC: Helicobacter, NCTC11637, 168 h, HP NCTC 11637, brucella agar with 5% horse blood, 7 days, read-out: AHP: minimum inhibitory concentration (MIC)
Protocol: Antibacterial Activity Test Against Helicobacter pyroli i) Meaning The minimum inhibitory concentration (MIC) against Helicobacter pyroli (microaerophilic gram-negative bacterium which is supposed to deeply involve in pathogenesis, relapse, and recrudescence of ulcer, referred to as "HP" in the following) is measured so as to find out compounds which have antimicrobial activity against Helicobacter pyroli. ii) Method MICs were determined by the agar dilution method. The stock culture (-80° C.) of HP NCTC 11637 was thawed and cultured on tripticase soy agar supplemented with 5% sheep blood at 37° C. in an atmosphere of 5% O2, 10% CO2, and 85% N2. Grown colonies were transferred to the same plate and precultured for 3 days under the same condition. […] 10 μl of the bacterial suspension for inoculation (about 10^3 cfu) was inoculated on this plate and cultured for 7 days under the same condition as that of preculture.

gastric mucosa = test: PD: Gastric Mucosal Integrity Test (gastric mucosal potential difference); type: in vivo, rat (male Crj:SD); set-up: key: 5: Same as the control with no recognizable damage at all.; 4: Though a slight PD-decreasing tendency suggesting a slight possibility of mucosal damage is found, there is no problem.; 3: Though a weak decrease in PD and a possibility of a weak mucosal damage is recognized, there is no substantial problem.; 2: Medium degree of decrease in PD is found and a mucosal damage is recognized.; 1: Heavy degree of decrease in PD is found and a remarkable mucosal damage is recognized; conditions: 100 mg/kg into chamber, rats, 60 minutes
Protocol: PD: Gastric Mucosal Integrity Test
In this case, since the sample compound has a necrotizing effect, it is inappropriate as an anti-ulcer medicament.
Therefore, the gastric mucosal potential difference (PD), which reflects the integrity of the gastric mucosa, is measured so as to confirm that the sample compound has no damaging effect on gastric mucosa, which is toxicity at gastric mucosal level.
Male Crj:SD rats (7 to 8-week-old) were fasted overnight, but allowed free access to water, and then, under urethane anesthesia (1.25 g/kg, i.p.), fixed to a cork board on its back. The abdomen of each rat was incised, and a small incision was made in the forestomach. Then, the inside of the stomach was washed with physiological saline heated at 37° C. From the forestomach, along the greater curvature thereof, the stomach was incised without damaging blood vessels. After the height of the cork board was adjusted on a jack, the stomach was mounted on ex vivo chamber. The area of the gastric mucosa exposed to the inside of this chamber was 2.5 cm^2. The inside of the chamber was perfused with physiological saline warmed at 37° C. by micro tube pump. By using an agar bridge containing 3M KCl, the potential difference between the chamber and the abdominal cavity was measured by a PD meter. Here, the rectal temperature was measured to control the body temperature during the experiment. After the PD was sufficiently stabilized, the perfusate was stopped and then 100 mg/10 ml/kg of the sample compound dissolved or suspended in an aqueous solution of 0.5% sodium carboxymethyl cellulose or 0.05% Tween 80 was administered into the chamber, while PD was recorded for 60 minutes. To a control, the vehicle was administered.
The change in PD during 60 minutes after the administration of 100 mg/kg of the sample compound was collectively studied and, with reference to the positive control, classified into 5 levels as follows:
5: Same as the control with no recognizable damage at all.
3: Though a weak decrease in PD and a possibility of a weak mucosal damage is recognized, there is no substantial problem.
2: Medium degree of decrease in PD is found and a mucosal damage is recognized.
1: Heavy degree of decrease in PD is found and a remarkable mucosal damage is recognized.

Male Slc:ICR mice = tested on: Male Slc:ICR mice; set-up: species or system mouse (male Slc:ICR); conditions: mouse, in vivo
Protocol: AT: Single Dose Toxicity Pretest
Male Slc:ICR mice (5-week-old) were used. Each group has 3 to 5 mice and each mouse was fasted, but allowed free access to water, for 4 to 5 hours from 9 a.m. in the test day. Then, 2,000 mg/10 ml/kg of the sample compound dissolved or suspended in an aqueous solution of 0.5% sodium carboxymethyl cellulose was orally administered thereto. To a control, only the vehicle was administered. […] The body weight was measured before and after the fasting as well as at the same time everyday. The dead animals were immediately subjected to autopsy and their organs were observed microscopically. Also, the living animals were sacrificed with ether or carbon dioxide one week after the administration and then their organs were observed microscopically.
The toxicity at the single dose of 2,000 mg/kg of the sample compound was expressed as being classified into 5 levels.
5: Mortality rate is 0%; no toxicity is found at all both in behavior and organs.
4: Mortality rate is 0%; while no toxicity is found in organs, slight toxicity is observed in behavior and body weight increase.
3: While there is a dead animal (though not all the animals are dead), no toxicity is found in organs.
2: Regardless of whether there is a dead animal or not, toxicity is found in organs.
1: All the animals are dead.

[4] = 10^-5 M compound, 10^-5 M histamine, rabbit isolated gastric fundic gland, 37° C., 40 minutes

SMILES | WIS: ulcer formation inhibitory rate (stress ulcer) | inhibition at 10 µM [2, 4] | AT: toxicity at single dose, 5 levels (Male Slc:ICR mice) | also measured
CC(C)=CCCC(C)=CCOc1ccc(C(=O)NCCN2CC(C)OC(C)C2)cc1 (stereo not drawn) [Example 34] | 38% | – | – | MTT: cell damaging rate [1]: 14%
CC(C)=CCC/C(C)=C/COc1ccc(C(=O)NCCN2CCN(CC(C)C)CC2)cc1 [Example 46] | 78% | 100% | – | TAO: total acid output inhibitory rate (acid secretion in vivo): 34%; VOL: gastric juice volume inhibitory rate (acid secretion in vivo): 33%; cytotoxicity at 4 h, 100 µM (in vitro): 68%
CC(C)=CCC/C(C)=C/COc1ccc(C(=O)NCCN2CCN(CC(=O)N3CCCC3)CC2)cc1 [Example 55] | – | – | – | inhibition at 10 µM [2]: 99.2%; cytotoxicity at 4 h, 100 µM [3]: 27%
CC(C)=CCC/C(C)=C/COc1ccc(C(=O)NCCN2CCN(c3nc4ccccc4s3)CC2)cc1 [Example 59] | 47% | 93% | – | MIC (Helicobacter pyroli): < 3.13 µg/mL; antibacterial activity against Helicobacter pyroli (Helicobacter pyroli; result in words): having an antibacterial activity against Helicobacter pyroli; cytotoxicity at 4 h, 100 µM (in vitro): 7%
CC(C)=CCC/C(C)=C/CC/C(C)=C/COc1ccc(C(=O)NCCN2CCCCC2)cc1 [Example 10] | 47% | 98% | 4 | PD: change in gastric mucosal potential difference, 5 levels (gastric mucosa): 5
CC(C)=CCC/C(C)=C/COc1ccc(C(=O)NCCN2CCCCC2)cc1 [Example 3] | 79% | 100% | 4 | TAO: total acid output inhibitory rate (acid secretion in vivo): 85%; VOL: gastric juice volume inhibitory rate (acid secretion in vivo): 68%
CC(C)Cc1cc(C(=O)NCCN2CCN(CC(C)C)CC2)ccc1OCc1ccc(F)cc1 [Example 62] | 77% | 102% | 3 | MIC (Helicobacter pyroli): < 3.13 µg/mL
